In ChEMBL document CHEMBL1147742, “Design and synthesis of photoaffinity-labeling ligands of the L-prolyl-L-leucylglycinamide binding site involved in the allosteric modulation of the dopamine receptor” (J Med Chem, 2006):
The source made the active and inactive calls. The rule behind the calls is not given here. Where a SMILES comes first, the peptide text is derived from it.

Biological target: D(2) dopamine receptor (Bos taurus) (UniProt P20288)
Test: Stimulation of [3H]NPA binding to dopamine D2 receptor from bovine striatal membranes in presence of photoaffinity-labeling agents
Details: not given

Sequence of D(2) dopamine receptor (Bos taurus) (P20288 whole entry): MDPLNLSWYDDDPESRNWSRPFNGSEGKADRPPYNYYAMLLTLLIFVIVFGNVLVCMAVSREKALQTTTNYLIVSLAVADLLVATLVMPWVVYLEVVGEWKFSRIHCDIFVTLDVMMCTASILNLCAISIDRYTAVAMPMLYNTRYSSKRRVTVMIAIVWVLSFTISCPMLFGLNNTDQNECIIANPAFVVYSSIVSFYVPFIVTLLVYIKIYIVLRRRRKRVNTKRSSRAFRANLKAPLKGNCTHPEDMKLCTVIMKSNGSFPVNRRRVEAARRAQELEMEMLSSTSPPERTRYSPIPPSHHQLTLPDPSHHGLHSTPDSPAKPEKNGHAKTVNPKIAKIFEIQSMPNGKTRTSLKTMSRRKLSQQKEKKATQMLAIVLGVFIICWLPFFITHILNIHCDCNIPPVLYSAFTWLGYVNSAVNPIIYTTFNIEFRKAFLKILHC

SMILES | Activity
CC(C)C[C@H](NC(=O)[C@@H]1CCCN1)C(=O)NCC(N)=O (H-Pro-Leu-Gly-NH2) | inactive
NC(=O)CN1CC[C@@H](NC(=O)[C@@H]2CCCN2)C1=O | inactive

Biological target: D(2) dopamine receptor (Bos taurus) (UniProt P20288)
Test: Stimulation of [3H]NPA binding to dopamine D2 receptor in bovine striatal membranes
Format: cell membranes
Details: Striatum, Membrane

SMILES | Activity
[N-]=[N+]=Nc1ccc(C(=O)N[C@H]2CN[C@H](C(=O)N[C@@H]3CCN(CC(N)=O)C3=O)C2)c(O)c1 | Active
[N-]=[N+]=Nc1cc(O)c(C(=O)N[C@@H]2CN[C@H](C(=O)N[C@@H]3CCN(CC(N)=O)C3=O)C2)cc1I | Active
CC(C)C[C@H](NC(=O)[C@@H]1CCCN1)C(=O)NCC(N)=O (H-Pro-Leu-Gly-NH2) | 24.5%
NC(=O)CN1CC[C@@H](NC(=O)[C@@H]2CCCN2)C1=O | 51.1%
[N-]=[N+]=Nc1ccc(C(=O)NCCNC(=O)CN2CC[C@@H](NC(=O)[C@@H]3CCCN3)C2=O)c(O)c1 | Active
[N-]=[N+]=Nc1ccc(C(=O)N[C@@H]2CN[C@H](C(=O)N[C@@H]3CCN(CC(N)=O)C3=O)C2)c(O)c1 | Active
[N-]=[N+]=Nc1ccc(C(=O)NCCNC(=O)CN2CC[C@@H](NC(=O)[C@@H]3CCCN3)C2=O)cc1 | Active
[N-]=[N+]=Nc1cc(O)c(C(=O)NCCNC(=O)CN2CC[C@@H](NC(=O)[C@@H]3CCCN3)C2=O)cc1I | Active
[N-]=[N+]=Nc1ccc(C(=O)N[C@@H]2CN[C@H](C(=O)N[C@@H]3CCN(CC(N)=O)C3=O)C2)cc1 | Active
[N-]=[N+]=Nc1ccc(C(=O)N[C@H]2CN[C@H](C(=O)N[C@@H]3CCN(CC(N)=O)C3=O)C2)cc1 | Active
